This is an account of results in ChEMBL document CHEMBL5390204, “Persephacin Is a Broad-Spectrum Antifungal Aureobasidin Metabolite That Overcomes Intrinsic Resistance in Aspergillus fumigatus” (J Nat Prod, 2023).

Values after ≈ are worked out from the molar mass of the structure shown. Active and inactive are the calls of the source. The rule behind the calls is not given here.

One data set deals with Fusarium solani. The data set is described as follows: Antifungal activity against Fusarium solani 243G2 assessed as reduction in fungal viability incubated for 48 hrs by microplate reader analysis. It counts as functional.
Data set [1] relates to Candida albicans. The data set is described as follows: Antifungal activity against Candida albicans SC5314 assessed as inhibition in fungal growth incubated for 48 hrs in presence of 10% serum by microplate reader analysis. In kind it is functional.
Data set [2] has as its system Aspergillus fumigatus. The data set can be described thus: Antifungal activity against Aspergillus fumigatus MYA 3627 assessed as reduction in fungal growth incubated for 48 hrs by microplate reader analysis. It counts as functional.
Data set [3] has as its system Candida albicans. The data set is described as follows: Antifungal activity against Candida albicans SC5314 assessed as inhibition in fungal growth incubated for 48 hrs in presence of 0% serum by microplate reader analysis. It counts as functional.
Data set [4] is described as follows: Toxicity against human skin model at 10 to 1000 uM. In kind it is tissue-based, Skin of body. The note with it: dose 10-1000 µM.
A short description of data set [5]: Toxicity against human eye model assessed as irritation at 10 to 1000 uM. The note with it: dose 10-1000 µM. It counts as tissue-based.
For data set [6], the system named is Candida albicans. The data set is described as follows: Antifungal activity against fluconazole-resistant Candida albicans SC5314 infected in pig cornea assessed as suppression of fungal growth at 0.1 % administered post fungal infection measured after 4 days by microscopic analysis. It counts as functional, organism-based. The note with it: time 4.0 day.
For data set [7], the system named is Aspergillus fumigatus. The data set can be described thus: Antifungal activity against Aspergillus fumigatus NRRL5109 infected in pig cornea assessed as suppression of fungal growth at 0.1 % administered post fungal infection measured after 4 days by microscopic analysis. In kind it is functional, organism-based. The note with it: time 4.0 day.
The test system of data set [8] is Candida albicans. The data set can be described thus: Antifungal activity against Candida albicans SC5314 infected in pig cornea assessed as suppression of fungal growth at 0.1 % administered post fungal infection measured after 4 days by microscopic analysis. The note with it: time 4.0 day. It counts as functional, organism-based.

One may read the MIC80 as the lowest concentration that inhibits either 80% of growth or 80% of the strains tested, depending on the study. What is called MFC is the lowest tested concentration that kills the fungus rather than only halting it.

For the compound `C[C@@H]1[C@H](O)[C@@H](C)/C=C/C=C/C=C/C=C/C=C/C=C/C=C/[C@H](O[C@@H]2O[C@H](C)[C@@H](O)[C@H](N)[C@@H]2O)C[C@@H]2O[C@](O)(C[C@@H](O)C[C@@H](O)[C@H](O)CC[C@@H](O)C[C@@H](O)CC(=O)O[C@H]1C)C[C@H](O)[C@H]2C(=O)O` [AMPHOTERICIN B], in the data set on Fusarium solani, the “MFC<=99.9” value was 1.3 µM (≈ 1.2 µg/mL). Also, the MIC80 in the data set on Candida albicans [1] is < 0.2 µM; in the data set on Aspergillus fumigatus [2], 2.5 µM (≈ 2.31 µg/mL); with Candida albicans [3] it was 0.6 µM. In addition, the MFC with Aspergillus fumigatus [2] came to 2.5 µM (≈ 2.31 µg/mL).

Consider `CC[C@H](C)C[C@H](C)C[C@H](C)C[C@@H]1NC(=O)[C@H](C(C)C)N(C)C(=O)[C@@H]([C@H](C)CC)OC(=O)[C@H](C(C)(C)O)N(C)C(=O)[C@H](CC(C)C)NC(=O)[C@H](C(C)C)N(C)C(=O)[C@H]([C@H](C)CC)NC(=O)[C@@H]2CCCN2C(=O)CN(C)C1=O`, for which the Activity entry in data set [4] and in [5] was “Non-Toxic” each time. For the same compound, the “MFC<=99.9” value with Fusarium solani was 2.5 µM (≈ 2.69 µg/mL). Besides, the outcome with Candida albicans [6], in the data set on Aspergillus fumigatus [7] and in the data set on Candida albicans [8] was Active. Also, the MIC80 was determined as 0.3 µM with Candida albicans [1], 2.5 µM (≈ 2.69 µg/mL) in the data set with Aspergillus fumigatus [2] and 0.6 µM in the data set with Candida albicans [3]. Further, in the data set on Aspergillus fumigatus [2], the MFC is 5 µM (≈ 5.38 µg/mL).
